Read-outs that look alike come from different tables or passages of the source.
Assays:
[1] = target: Phi29 (exo-) (D169A mutant) (Bacillus phage phi29, UniProt P03680, D169A)
Protocol: Base Reading Mix: 50 mM Tris (pH 7.5), 50 mM NaCl, 5 mM CaCl2, 0.2% BSA, 80 μg/mL glucose oxidase; 2000 U/mL Katalase; 1 mM Trolox; 0.5% glucose; 250 nM Phi29 (exo-) (D169A mutant), 500 nM non-hydrolyzable nucleotide (AF647-C6 alkyl linker-alpha-thio-dA4P nucleotide analog, labeled at the terminal phosphate with ALEXA FLUOR 647).
Commercial nanoparticles (605 ITK SAV quantum dots, Invitrogen, catalog # Q10001MP) were immobilized onto PEG/PEG-biotin coverslip surfaces at 5 pM for 4 minutes. The surface-immobilized nanoparticles were saturated with hairpin molecules via the biotin in the loop.
All the transient-binding and extension steps as well as the protocols and the imaging conditions were identical to the ones described in Example 8 above (6-Base Extension, 2-Color Sequencing, in the Presence of Calcium). In this experiment only one non-hydrolyzable-AF647-dA4P were used in all transient-binding steps.
The transient-binding reaction steps, using labeled non-hydrolyzable nucleotides steps, were conducted at room temperature and included: • 1.

Klenow (exo-) = Klenow (exo-) (Escherichia coli, UniProt P00582, D355A/E357A); settings: P2-1 primer (template nucleotide A); 200 nM each of four base-labeled nucleotides, 250 nM Klenow (exo-), 10 mM CaCl2
Protocol: The following procedure was conducted using a SOLID sequencing instrument (SOLiD 0025) (Applied Biosystems, Foster City, Calif.), and template/primer duplexes immobilized on SOLiD S3 clonal beads, SOLiD flowcells, and Klenow polymerase.
Seven μM of the P2 primer, in 1×SSPE (150 mM NaCl, 10 mM sodium phosphate, 1 mM EDTA), was added to a SOLiD flowcell containing beads/template immobilized on a glass slide, at 25° C., then hybridized at 75° C. for 1 minute, 70° C. for 2 minutes, 65° C. for 2 minutes, 60° C. for 2 minutes, and washed with 1× Instrumentation Buffer (AB Part No. 4389784).
The labeled nucleotides were obtained from PerkinElmer Life and Analytical Science (Boston, Mass.): Cy5-dUTP, Cy3-dCTP, FAM-dGTP, and Texas Red (TxR)-dATP (base-labeled nucleotides). The Klenow fragment polymerase was obtained from New England Biolabs (No. M0212L, Ipswich, Mass.).
The beads were washed with 3 mL of Universal Buffer (50 mM NaCl, 10 mM Tris-HCl (pH 8), 10 mM CaCl2, 2 mM DTT). And 0.2 mL of Sensing Buffer Mix (200 nM each of Cy5-dUTP, Cy3-dCTP, Fam-dGTP, and Texas Red-dATP; 250 nM Klenow (exo-) in the Universal Buffer) was injected into the flowcell and incubated for 5 minutes at room temperature. […]

| Substance | signal from transiently-bound nucleotide ([1]; Base Reading Mix containing 5 mM MnCl2 (instead of CaCl2), correct nucleotide, 500 nM) | signal from transiently-bound nucleotide ([1]; after addition of CaCl2 (approximated 5-10 mM) to the manganese reaction, without washing) | bead fluorescence after wash (Klenow (exo-)) |
| --- | --- | --- | --- |
| AF647-C6 alkyl linker-alpha-thio-dA4P nucleotide analog [alpha-thio-dA4P-AF647] | no detectable signal | detectable immediately upon addition of the calcium | – |
| Cy5-dUTP | – | – | fluoresce to a greater degree than the other dye-labeled nucleotides |
